Test results as given in ChEMBL document CHEMBL1156990, “[(11)C]Dimebon, radiosynthesis and lipophilicity of a new potential PET agent for imaging of Alzheimer's disease and Huntington's disease” (Bioorg Med Chem Lett, 2010).

Assay: Octanol-water partition coefficient, log P by reverse phase HPLC method
Format: physicochemical

SMILES | logP
Cc1ccc2c(c1)c1c(n2CCc2ccc(C)nc2)CCN([11CH3])C1 | 2.53
CC(=O)N(Cc1ccccc1O[11CH3])c1cnccc1Oc1ccccc1 | 2.21
